The values below come from patent US20190175690A1, “COMPOSITIONS AND METHODS FOR CARDIAC REPAIR” (CHILDREN'S MEDICAL CENTER CORPORATION, priority 2016, published 2019).

One may read the pKd as the negative decadic logarithm of the Kd, by convention in mol/L.

In one data set the test system is myocardial infarction. To be noted: Dong et al., 2007; cited from earlier work.
For data set [1], the system named is TEAD1-YAP transcriptional activity. Put plainly: 8xGTIIC-Luci luciferase reporter assay in 293T cells with DOX-induced VGLL4. Format: cell-based. As to the method:
(§1) FIG. 7A is an immunoblot showing VGLL4 overexpression decreased TEAD1 protein level. Different doses of TEAD1 plasmids (indicated in μg) were co-transfected with 1.6 μg VGLL4-GFP plasmid. Cells were collected for western blot 24 hours after transfection. FIGS. 7B-7C show the generation and validation of TEAD1-Dendra2 construct. Tead1-Dendra2 plasmid was transfected into 293T cells. Western blot confirmed expression of TEAD1-Dendra2 fusion protein (FIG. 7B). TEAD1-Dendra2 merge fusion protein was green before illumination with 405 nm light. […] Cells were analyzed at the indicated time points. […] FIG. 7E is a graph showing the quantification of TEAD1-Dendra2 protein levels in FIG. 7D. *P<0.05. n=3. […] Relative red fluorescence intensity (RFI) was monitored for 20 minutes by taking one image per minute. n=6. […] Twenty-four (24) hours after transfection, cells were treated with Dox for the indicated number of hours, when cell extracts were analyzed for Firefly and Renilla luciferase activity. […]
The data indicates an additional mechanism, in which VGLL4 binding to TEAD1 promotes its degradation and thereby reduces the amount available to interact with YAP. To test additional mechanisms, the TEAD1 luciferase reporter 8xGTIIC-Luci (Dupont et al., 2011) was used as a read out of TEAD1-YAP transcriptional activity. […]
(In general: A reporter such as luciferase makes a cellular process visible.)

The next data set has as its system TEAD1-Dendra2. Put plainly: pulse-labeled TEAD1-Dendra2 live cell imaging in 293T cells. Conditions: photoconverted TEAD1-Dendra2, Dox-induced VGLL4. Format: cell-based. On the procedure: as §1
DOX-induced VGLL4 expression was combined with live cell imaging of TEAD1-Dendra2 to specifically probe the effect of VGLL4 on TEAD1 stability. […] In the absence of VGLL4, TEAD1-Dendra2 protein fluorescence intensity dropped by 10% during the first 10 minutes, and then became relatively stable. […]

The subject of data set [2] is VGLL4-mediated TEAD1 degradation. Put plainly: VGLL4-mediated TEAD1 degradation in co-transfected 293T cells (immunoblot). Format: cell-based. To be noted: 293T cells co-transfected with TEAD1 and VGLL4, inhibitors for 6 hours. On the procedure:
HA-VGLL4 was cloned downstream of TetO promoter. pEF1α::rtTA was used to express rtTA. The expression of HA-VGLL4 will be activated in the presence of both Dox and rtTA. […] 293T cells were co-transfected with pEF1α::rtTA and pTetO::HA-Vgll4. Twenty-four (24) hours after transfection, cells were treated with […] Dox for different hours. Immunoblotting was carried out to detect the expression of HA-VGLL4. […] Mouse Tead1 specific primers were used to measure relative Tead1-Dendra2 mRNA level by qRT-PCR. FIG. 8D depicts an immunoblot showing TEAD1 degradation is dependent on cysteine proteases and is independent of the proteasome. 293T cells were first co-transfected with TEAD1^fb and Vgll4-GFP plasmids. 1 day after transfection, cells were treated with indicated inhibitors for 6 hours. Dimethyl sulfoxide (DMSO, 0.1%) was used as control vehicle. β-tubulin was used as loading control.
Major pathways for protein degradation can include the proteasome and cysteine, serine, and threonine peptidases. To determine if these candidate pathways are involved in VGLL4-mediated TEAD1 degradation, the effect of MG132 (a universal proteasome inhibitor (Lee et al., 1998)), leupeptin (an inhibitor of serine and threonine peptidases (Umezawa, 1976)) and E64 (an inhibitor specific to cysteine proteases (Barrett et al., 1982)) on VGLL4-mediated TEAD1 degradation was studied.
A general note: In western blotting, separated proteins are transferred to a membrane and probed.

For data set [3], the system named is high salt diet induced heart failure. To be noted: Cheng et al., 2008; cited from earlier work.
The conditions of data set [4]: clinical testing, Chen et al., 2013; cited from earlier work.
Data set [5] has as its target TEAD1-Dendra2 fusion protein (mouse) (UniProt P30051).
Data set [6] has the same target. This is another data set of the same source.
The target of data set [7] is His-TEAD1[211-427] (recombinant murine TEAD1 residues 211-427 with polyhistidine tag, from E. coli) (mouse) (UniProt P30051). Put plainly: photonic crystal nanobeam sensor, His-TEAD1[211-427] immobilized, curve fitted to the Langmuir equation.

pKd: −log10 of the molar value.

For `CC(C)C[C@H](NC(=O)[C@H]1O[C@@H]1C(=O)O)C(=O)NCCCCN=C(N)N` (relative stereo) [E64, L-trans-Epoxysuccinyl-leucylamido(4-guanidino)butane], in the data set with myocardial infarction, the “beneficial effect in myocardial infarction model” value was “did not show a beneficial effect”. Besides, the “reduction of TEAD1 transcriptional activity caused by VGLL4 induction” value in data set [1] was “did not completely abrogate”. Moreover, the luciferase reporter activity entry in data set [1] (8 hours after DOX treatment, P<0.05) is recorded as “significantly increased reporter activity”. The “destabilizing effect of VGLL4 on TEAD1-Dendra2” value in the data set on TEAD1-Dendra2 is “reduced the destabilizing effect of VGLL4 on TEAD1-Dendra2”. For the same molecule, the “VGLL4-mediated reduction of TEAD1 steady-state levels” value in [2] is given as “reduced VGLL4-mediated reduction of TEAD1 steady-state levels”. Besides, the “high salt diet induced heart failure” value in data set [3] was “attenuated high salt diet induced heart failure”.

Consider `CCOC(=O)[C@H]1O[C@@H]1C(=O)N[C@@H](CC(C)C)C(=O)NCCC(C)C` [E64d], for which the safety profile entry in [4] is “good safety profile”.

For the molecule `CC(=O)N[C@@H](CC(C)C)C(=O)N[C@@H](CC(C)C)C(=O)N[C@H](C=O)CCCNC(=N)N` [leupeptin], the “VGLL4-mediated reduction of TEAD1 steady-state levels” value in data set [2] is recorded as “reduced VGLL4-mediated reduction of TEAD1 steady-state levels”.

“HA-VGLL4 (doxycycline-inducible, pTetO::HA-VGLL4)”: the steady-state TEAD1-Dendra2 protein level after Dox (immunoblot) in data set [5] was found to be 50%. Moreover, the red fluorescence intensity of photoconverted TEAD1-Dendra2 (time lapse imaging) in data set [6] was found to be 18%. In the data set with Dendra2, this molecule gave a red fluorescence intensity of photoconverted Dendra2 (time lapse imaging) of 5%.

On to “synthetic non-acetylated VGLL4 TDU domain peptide with V5 epitope (from UniProt Q14135-4)”, for which the pKd in data set [7] is 8.51.
